What is called IC50 is the concentration at which inhibition is half-maximal.

Experiment [1] has as its target Tyrosine-protein kinase JAK1 (Homo sapiens, UniProt P23458). Put plainly: Inhibition of JAK1 (unknown origin).
Experiment [2] deals with T1, Tyrosine-protein kinase JAK3 (Homo sapiens, UniProt P52333).
T1 sequence (P52333 whole entry): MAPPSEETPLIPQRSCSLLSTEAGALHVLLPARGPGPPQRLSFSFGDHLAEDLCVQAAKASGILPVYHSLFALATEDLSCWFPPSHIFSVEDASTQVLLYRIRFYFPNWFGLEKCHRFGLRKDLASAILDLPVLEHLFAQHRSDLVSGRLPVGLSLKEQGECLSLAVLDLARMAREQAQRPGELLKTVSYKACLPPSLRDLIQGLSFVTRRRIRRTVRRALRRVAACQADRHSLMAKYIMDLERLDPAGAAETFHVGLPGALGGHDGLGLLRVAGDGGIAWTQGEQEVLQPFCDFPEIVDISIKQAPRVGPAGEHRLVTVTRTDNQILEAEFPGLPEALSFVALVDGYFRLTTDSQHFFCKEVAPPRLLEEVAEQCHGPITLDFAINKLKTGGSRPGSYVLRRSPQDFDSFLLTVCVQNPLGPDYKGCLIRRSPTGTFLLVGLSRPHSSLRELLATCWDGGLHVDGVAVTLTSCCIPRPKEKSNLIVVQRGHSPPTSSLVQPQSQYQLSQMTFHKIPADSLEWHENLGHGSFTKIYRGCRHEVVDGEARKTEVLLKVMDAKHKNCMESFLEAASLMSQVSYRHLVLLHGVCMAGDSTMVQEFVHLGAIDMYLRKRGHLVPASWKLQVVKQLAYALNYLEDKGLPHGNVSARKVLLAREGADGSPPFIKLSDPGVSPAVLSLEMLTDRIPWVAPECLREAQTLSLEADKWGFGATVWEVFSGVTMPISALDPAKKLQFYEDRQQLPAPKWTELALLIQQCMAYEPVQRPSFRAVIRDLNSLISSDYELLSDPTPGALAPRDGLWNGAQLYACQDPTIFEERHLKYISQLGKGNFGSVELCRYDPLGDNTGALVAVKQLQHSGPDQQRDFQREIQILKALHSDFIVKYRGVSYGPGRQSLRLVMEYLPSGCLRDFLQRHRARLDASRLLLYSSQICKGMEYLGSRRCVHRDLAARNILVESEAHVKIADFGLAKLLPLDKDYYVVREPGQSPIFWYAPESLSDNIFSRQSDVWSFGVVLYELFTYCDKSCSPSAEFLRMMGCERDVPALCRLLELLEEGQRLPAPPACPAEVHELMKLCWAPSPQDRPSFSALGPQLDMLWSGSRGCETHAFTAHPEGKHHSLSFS
Description: Inhibition of JAK3 (unknown origin).

Experiment [3] is filed under the species Homo sapiens. Description: Selectivity index, ratio of IC50 for JAK1 (unknown origin) to IC50 for TYK2 (unknown origin).
In experiment [4] the target is T2, Non-receptor tyrosine-protein kinase TYK2 (Homo sapiens, UniProt P29597). Description: Inhibition of TYK2 (unknown origin).
T2 sequence (P29597 whole entry): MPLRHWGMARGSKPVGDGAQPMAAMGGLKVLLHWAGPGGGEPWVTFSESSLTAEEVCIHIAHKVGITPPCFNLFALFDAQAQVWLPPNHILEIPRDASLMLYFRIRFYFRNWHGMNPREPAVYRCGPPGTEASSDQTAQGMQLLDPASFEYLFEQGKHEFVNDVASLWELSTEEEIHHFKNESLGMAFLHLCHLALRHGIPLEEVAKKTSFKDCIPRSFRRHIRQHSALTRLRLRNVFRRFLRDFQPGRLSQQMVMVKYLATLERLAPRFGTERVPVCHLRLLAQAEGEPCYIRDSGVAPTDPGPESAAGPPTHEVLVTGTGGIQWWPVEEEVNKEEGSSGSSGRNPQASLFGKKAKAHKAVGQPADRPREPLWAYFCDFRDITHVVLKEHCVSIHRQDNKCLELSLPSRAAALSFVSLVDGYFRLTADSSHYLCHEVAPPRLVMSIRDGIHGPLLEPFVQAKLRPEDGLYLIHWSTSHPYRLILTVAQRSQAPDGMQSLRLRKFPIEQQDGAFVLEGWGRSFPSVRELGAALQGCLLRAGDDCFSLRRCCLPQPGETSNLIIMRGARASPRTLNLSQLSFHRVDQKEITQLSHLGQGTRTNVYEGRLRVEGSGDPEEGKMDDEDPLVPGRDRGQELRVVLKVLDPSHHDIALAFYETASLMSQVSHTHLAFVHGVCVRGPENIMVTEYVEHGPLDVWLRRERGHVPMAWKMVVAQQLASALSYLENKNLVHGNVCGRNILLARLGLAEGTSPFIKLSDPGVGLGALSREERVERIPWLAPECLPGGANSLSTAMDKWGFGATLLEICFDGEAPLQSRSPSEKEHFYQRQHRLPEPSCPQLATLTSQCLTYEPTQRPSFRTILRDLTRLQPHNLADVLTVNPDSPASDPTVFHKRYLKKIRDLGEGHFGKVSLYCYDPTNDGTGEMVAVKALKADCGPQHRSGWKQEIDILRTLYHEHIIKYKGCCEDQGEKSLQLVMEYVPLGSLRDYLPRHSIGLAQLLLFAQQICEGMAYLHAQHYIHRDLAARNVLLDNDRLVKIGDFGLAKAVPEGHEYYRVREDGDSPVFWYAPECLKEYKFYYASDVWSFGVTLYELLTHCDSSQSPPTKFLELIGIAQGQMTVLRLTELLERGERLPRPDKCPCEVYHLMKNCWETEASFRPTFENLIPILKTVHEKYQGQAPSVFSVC
The species named for experiment [5] is Homo sapiens. Put plainly: Selectivity index, ratio of IC50 for JAK2 (unknown origin) to IC50 for TYK2 (unknown origin).
The species entered for experiment [6] is Homo sapiens. Put plainly: Selectivity index, ratio of IC50 for JAK3 (unknown origin) to IC50 for TYK2 (unknown origin).
For experiment [7], the target named is Tyrosine-protein kinase JAK2 (Homo sapiens, UniProt O60674). Description: Inhibition of JAK2 (unknown origin).
Chain of Tyrosine-protein kinase JAK2 (O60674 whole entry): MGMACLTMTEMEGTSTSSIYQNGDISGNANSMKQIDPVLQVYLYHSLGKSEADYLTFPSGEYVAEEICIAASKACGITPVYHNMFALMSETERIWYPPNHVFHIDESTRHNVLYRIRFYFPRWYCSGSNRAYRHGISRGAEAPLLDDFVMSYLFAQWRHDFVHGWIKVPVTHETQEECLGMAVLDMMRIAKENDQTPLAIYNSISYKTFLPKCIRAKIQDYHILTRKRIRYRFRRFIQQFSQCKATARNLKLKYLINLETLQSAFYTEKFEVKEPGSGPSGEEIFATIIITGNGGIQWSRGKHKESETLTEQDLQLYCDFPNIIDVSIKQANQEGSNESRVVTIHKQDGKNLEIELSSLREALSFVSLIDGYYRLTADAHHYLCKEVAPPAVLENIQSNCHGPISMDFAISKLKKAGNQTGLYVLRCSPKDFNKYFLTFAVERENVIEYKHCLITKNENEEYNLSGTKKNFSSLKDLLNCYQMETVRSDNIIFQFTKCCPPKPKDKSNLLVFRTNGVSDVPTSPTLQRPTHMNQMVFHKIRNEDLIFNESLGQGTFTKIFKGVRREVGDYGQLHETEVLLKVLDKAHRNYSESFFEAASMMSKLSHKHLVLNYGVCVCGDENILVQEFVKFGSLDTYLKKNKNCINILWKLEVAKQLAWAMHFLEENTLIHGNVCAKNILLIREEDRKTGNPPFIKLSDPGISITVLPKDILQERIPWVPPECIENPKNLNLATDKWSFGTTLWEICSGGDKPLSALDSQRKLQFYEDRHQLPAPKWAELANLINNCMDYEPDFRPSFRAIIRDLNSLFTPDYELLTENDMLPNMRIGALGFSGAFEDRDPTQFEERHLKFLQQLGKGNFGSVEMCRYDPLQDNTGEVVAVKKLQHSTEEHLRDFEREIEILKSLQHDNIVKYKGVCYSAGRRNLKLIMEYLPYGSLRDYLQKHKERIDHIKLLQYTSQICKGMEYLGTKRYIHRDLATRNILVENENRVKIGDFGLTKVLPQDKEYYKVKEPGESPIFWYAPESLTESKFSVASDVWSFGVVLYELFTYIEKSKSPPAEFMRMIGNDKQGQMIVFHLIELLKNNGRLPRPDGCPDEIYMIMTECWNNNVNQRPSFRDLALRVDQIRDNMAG
Experiment [8] deals with T2, Non-receptor tyrosine-protein kinase TYK2. Description: Inhibition of TYK2 in human Jurkat cells by luciferase reporter gene assay. Format: cell-based. (A reporter such as luciferase makes a cellular process visible.)

Chain of Tyrosine-protein kinase JAK1 (P23458 whole entry): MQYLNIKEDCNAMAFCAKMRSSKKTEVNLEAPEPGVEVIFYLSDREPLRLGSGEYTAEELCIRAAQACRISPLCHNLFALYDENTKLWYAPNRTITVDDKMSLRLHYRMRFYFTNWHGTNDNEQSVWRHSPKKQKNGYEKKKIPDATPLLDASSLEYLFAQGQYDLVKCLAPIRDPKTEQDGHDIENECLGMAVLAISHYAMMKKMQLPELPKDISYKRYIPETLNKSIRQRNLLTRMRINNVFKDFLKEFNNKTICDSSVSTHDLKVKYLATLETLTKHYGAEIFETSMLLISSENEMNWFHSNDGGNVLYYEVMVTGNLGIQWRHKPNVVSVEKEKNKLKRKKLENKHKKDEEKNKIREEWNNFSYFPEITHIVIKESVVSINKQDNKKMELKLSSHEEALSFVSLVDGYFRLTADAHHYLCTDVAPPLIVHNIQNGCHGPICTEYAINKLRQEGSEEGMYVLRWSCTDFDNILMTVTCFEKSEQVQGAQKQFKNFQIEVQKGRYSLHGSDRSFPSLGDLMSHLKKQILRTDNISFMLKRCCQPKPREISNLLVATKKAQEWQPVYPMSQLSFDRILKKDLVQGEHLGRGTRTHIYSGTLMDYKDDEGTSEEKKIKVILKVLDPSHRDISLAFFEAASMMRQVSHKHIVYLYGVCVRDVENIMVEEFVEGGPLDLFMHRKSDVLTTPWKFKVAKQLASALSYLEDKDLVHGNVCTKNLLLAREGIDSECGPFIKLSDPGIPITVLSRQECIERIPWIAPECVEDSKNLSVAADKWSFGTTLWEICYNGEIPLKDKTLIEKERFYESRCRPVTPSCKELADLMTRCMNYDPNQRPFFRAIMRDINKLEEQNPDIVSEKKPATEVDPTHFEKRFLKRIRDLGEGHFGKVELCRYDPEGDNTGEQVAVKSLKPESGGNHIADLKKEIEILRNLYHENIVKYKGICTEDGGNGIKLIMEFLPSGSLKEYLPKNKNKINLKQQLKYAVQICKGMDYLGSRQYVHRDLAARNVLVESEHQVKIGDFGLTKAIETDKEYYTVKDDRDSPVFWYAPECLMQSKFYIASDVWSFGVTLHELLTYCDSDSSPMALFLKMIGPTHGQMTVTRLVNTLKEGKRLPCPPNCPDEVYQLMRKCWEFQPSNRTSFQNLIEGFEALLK

Take `N#C[C@]1(C2CC2)C(=O)N2C[C@H]1COCC(=O)NCc1cccc(n1)Nc1cc2ccn1`: the IC50 in experiment [1] came out at 3000 nM; in experiment [2], 1900 nM; in experiment [4], 130 nM; in experiment [7] it was 1000 nM; in experiment [8], 1300 nM. The Ratio IC50 was found to be 23 in experiment [3], 7.7 in experiment [5] and 15 in experiment [6].
Regarding `N#C[C@]1(C2CC2)C(=O)N2C[C@H]1COCC(=O)NCCc1cccc(n1)Nc1cc2ccn1`, the IC50 in experiment [1] amounted to 910 nM; in experiment [2] it was 130 nM; in experiment [4], 23 nM; in experiment [7], 180 nM; in experiment [8], 210 nM. Also, the Ratio IC50 in experiment [3] is 40; in experiment [5], 7.8; in experiment [6], 5.7.
In experiment [4], `CN(C)C(=O)c1ccc(Nc2cc(N3CC[C@@](C#N)(C4CC4)C3=O)ccn2)nc1` came in with an IC50 of 1.1 nM.
Regarding `N#C[C@]1(C2CC2)C(=O)N2C[C@H]1COC/C=C/COCc1cccc(n1)Nc1cc2ccn1`, the IC50 came out at 360 nM in experiment [1]; 180 nM in experiment [2]; 12 nM in experiment [4]; 140 nM in experiment [7]; 440 nM in experiment [8]. In addition, the Ratio IC50 turned out to be 30 in experiment [3], 12 in experiment [5] and 15 in experiment [6].
For the molecule `N#C[C@]1(C2CC2)C(=O)N2C[C@H]1COCCCCOCc1cccc(n1)Nc1cc2ccn1`, the IC50 worked out at 710 nM in experiment [1]; 400 nM in experiment [2]; 4.9 nM in experiment [4]; 130 nM in experiment [7]; 210 nM in experiment [8]. Further, the Ratio IC50 in experiment [3] was determined as 140; in experiment [5] it was 27; in experiment [6], 82.
Take `N#C[C@]1(C2CC2)C(=O)N2C[C@H]1COCC(=O)NCCCc1cccc(n1)Nc1cc2ccn1`: the IC50 in experiment [1] was 130 nM; in experiment [2], 43 nM; in experiment [4], 5.5 nM; in experiment [7], 100 nM; in experiment [8], 180 nM. The Ratio IC50 in experiment [3] turned out to be 24; in experiment [5], 18; in experiment [6], 7.8.
On to `N#C[C@]1(C2CC2)C(=O)N2C[C@H]1COC/C=C\COCc1cccc(n1)Nc1cc2ccn1`, for which the half-maximal inhibitory concentration (IC50) came out at 580 nM in experiment [1]; 270 nM in experiment [2]; 5.2 nM in experiment [4]; 130 nM in experiment [7]; 260 nM in experiment [8]. Further, the Ratio IC50 stood at 110 in experiment [3], 25 in experiment [5] and 52 in experiment [6].

The record behind these values is ChEMBL document CHEMBL4627255, “Efficient synthesis of tert-butyl 3-cyano-3-cyclopropyl-2-oxopyrrolidine-4-carboxylates: Highly functionalized 2-pyrrolidinone enabling access to novel macrocyclic Tyk2 inhibitors” (Bioorg Med Chem Lett, 2020).
